Data published in paper PMC11491487 (Nature Communications, 2024).

Key:
chiRyR-I4657M/G4819E = chiRyR-I4657M/G4819E (Oryctolagus cuniculus, UniProt P11716, C4657M/F4564Y/G4819E/L4792S/R4563K); assay: biochemical; type: biochemical, rabbit; conditions: Ca2+-dependent [3H]ryanodine binding, mean ± SD, n=4
chiRyR = chiRyR (Oryctolagus cuniculus, UniProt P11716, C4657I/F4564Y/L4792S/R4563K); assay: biochemical; type: biochemical, rabbit; conditions: Ca2+-dependent [3H]ryanodine binding, mean ± SD, n=4

Work on `[Ca+2]` [Ca2+] yielded an IC50 (chiRyR-I4657M/G4819E) of 590 ± 190 µM, an EC50 (chiRyR-I4657M/G4819E; read-out: EC50 values for Ca2+) of 4.4 ± 2.4 µM and an IC50 (chiRyR) of 670 ± 370 µM. For the same compound, the EC50 (chiRyR; read-out: EC50 values for Ca2+) was 5 ± 1.1 µM.
